According to patent US7985594B2, “Biradical polarizing agents for dynamic nuclear polarization” (Massachusetts Institute of Technology, priority 2006, dated 2011):

Experiments:
[1] = DNP enhanced 13C-CPMAS NMR experiments (1H polarization enhancement by microwave irradiation); conditions: 5 mM TOTAPOL, 2 M 13C-urea in d6-DMSO/D2O/H2O, 90 K, 5 T
Description: Solutions for the DNP/NMR experiments—2 M ^13C-urea or 0.15 M U—^13C—^15N-proline—were prepared in d6-DMSO/D2O/H2O (60:34:6 w/w) or d8-glycerol/D2O/H2O (60:32:8 w/w), and doped with 5 mM TOTAPOL (10 mM electron spins). The reduced ^1H concentration was required to optimize the signal enhancements. DNP experiments using TOTAPOL as a polarizing agent were performed on a custom designed DNP/NMR spectrometer and triple-resonance (e^−, ^1H and ^13C/^15N) cryogenic (90 K) MAS probe^31 operating at 5 T (140 GHz EPR and 211 MHz ^1H NMR). The enhanced ^1H polarization developed by the microwave irradiation was detected indirectly via observation of the cross-polarized (CP) ^13C signals. The 140 GHz microwaves were generated by a gyrotron, a vacuum electron device capable of producing high power (>10 W) millimeter waves^26. In certain embodiments, sapphire, rather than zirconia, rotors are preferred for the DNP experiments since they transmit microwaves with ˜30% less attenuation. […]
The ^1H polarization is initially saturated by a series of 90° pulses followed by a delay of 3 T2. […] Note that the error for the enhancement factor is determined primarily by the uncertainty in measuring the intensity of the un-enhanced NMR signal.

[2] = Stability in glycerol/water; assay type: physicochemical; conditions: glycerol/water (6:4 w/w) at −10 °C for months
Description: (§1) In contrast, BT2E is insoluble in all of these media.

[3] = Solubility in aqueous media; assay type: physicochemical
Description: as §1

Substance: 1-(2,2,6,6-tetramethyl-1-oxy-4-piperidinyl)oxy-3-(2,2,6,6-tetramethyl-1-oxy-4-piperidinyl)amino-propan-2-ol [TOTAPOL]
- time constant for growth of the enhanced signal (microwaves on) [1]: ~5.5 s
- stability in glycerol/water [2]: stable
- solubility in 200 mM salt ([3]; 200 mM salt, solvent conditions common for protein samples): soluble in 200 mM salt
- solubility in water ([3]; water): soluble in water
